From ChEMBL document CHEMBL6120968, “Discovery of Thiadiazoleamide Derivatives as Potent, Selective, and Orally Available Antagonists Disrupting Androgen Receptor Homodimer” (J Med Chem, 2024) come the findings set out here.

pIC50: −log10 of the molar value.

Series [1] concerns the target T1, Mineralocorticoid receptor (Homo sapiens, UniProt P08235).
T1 sequence (P08235 whole entry): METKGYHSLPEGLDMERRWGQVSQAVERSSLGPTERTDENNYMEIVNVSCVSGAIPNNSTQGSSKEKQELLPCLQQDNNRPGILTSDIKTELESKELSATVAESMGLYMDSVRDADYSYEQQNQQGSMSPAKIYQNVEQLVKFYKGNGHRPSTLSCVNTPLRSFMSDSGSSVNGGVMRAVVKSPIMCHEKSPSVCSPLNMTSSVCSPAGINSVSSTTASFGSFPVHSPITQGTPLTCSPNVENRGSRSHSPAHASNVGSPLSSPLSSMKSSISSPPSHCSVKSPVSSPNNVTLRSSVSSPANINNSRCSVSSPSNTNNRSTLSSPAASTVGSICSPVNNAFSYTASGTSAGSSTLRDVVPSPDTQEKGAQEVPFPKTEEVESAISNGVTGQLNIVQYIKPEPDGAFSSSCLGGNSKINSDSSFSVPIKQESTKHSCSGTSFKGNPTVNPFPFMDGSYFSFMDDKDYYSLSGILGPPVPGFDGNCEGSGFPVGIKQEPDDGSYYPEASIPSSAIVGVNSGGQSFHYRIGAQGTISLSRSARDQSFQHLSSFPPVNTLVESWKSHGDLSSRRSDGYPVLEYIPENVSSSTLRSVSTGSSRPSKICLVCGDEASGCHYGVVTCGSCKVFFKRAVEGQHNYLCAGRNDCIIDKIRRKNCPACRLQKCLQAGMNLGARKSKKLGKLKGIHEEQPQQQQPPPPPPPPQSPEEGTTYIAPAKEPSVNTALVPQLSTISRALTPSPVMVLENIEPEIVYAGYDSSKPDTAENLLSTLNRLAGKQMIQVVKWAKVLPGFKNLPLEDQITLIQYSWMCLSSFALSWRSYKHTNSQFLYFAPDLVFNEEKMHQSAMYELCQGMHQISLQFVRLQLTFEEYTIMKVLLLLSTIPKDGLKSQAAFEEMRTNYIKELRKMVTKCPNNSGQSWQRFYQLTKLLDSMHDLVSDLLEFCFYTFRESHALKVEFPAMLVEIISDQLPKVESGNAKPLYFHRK
Description: Agonist activity at Mineralocorticoid receptor (unknown origin).

A further series has as its target Androgen receptor (Homo sapiens, UniProt P10275, F877L). Put plainly: Antagonist activity at Androgen receptor F877L mutant in human HEK293T cells cotransfected with MMTV-luc and renilla plasmid incubated for 24 hrs by Dual luciferase assay. In kind it is cell-based.
A short description of series [2]: Tmax in rat at 20 mg/kg, po by LC-MS/MS analysis. In kind it is ADME, organism-based. To be noted: in vivo.
The nature of series [3]: Microsomal stability in monkey liver microsome assessed as half life measured upto 60 mins in presence of NADPH and UDPGA by HPLC-MS/MS analysis. To be noted: rhesus monkey, liver microsomes. It counts as ADME, Macaca mulatta. A general note: Microsomes from liver hold many membrane-bound enzymes, among them those of drug oxidation.
A short description of series [4]: Microsomal stability in Beagle dog liver microsome assessed as half life measured upto 60 mins in presence of NADPH and UDPGA by HPLC-MS/MS analysis. In kind it is ADME, Canis lupus familiaris. To be noted: liver microsomes.
The subject of a further series is NIH3T3. Put plainly: Antiproliferative activity against mouse 3T3 cells assessed as reduction in cell viability incubated for 3 days by MTT assay. In kind it is toxicity, cell-based. To be noted: nih3t3, 72 h, time 3 day. (In general: Tetrazolium dyes change colour on reduction, which living cells bring about.)
Series [5] is described as follows: Microsomal stability in mouse liver microsome assessed as half life measured upto 60 mins in presence of NADPH and UDPGA by HPLC-MS/MS analysis. It counts as ADME. To be noted: liver microsomes.
The nature of series [6]: Oral bioavailability in rat at 20 mg/kg by LC-MS/MS analysis. In kind it is ADME, organism-based. Conditions: in vivo.
A short description of series [7]: Microsomal stability in mouse liver microsome assessed as parent compound remaining at 60 mins in presence of NADPH and UDPGA by HPLC-MS/MS analysis. In kind it is ADME. Conditions: liver microsomes, read-out: Stability.
The next series has as its target T2, Progesterone receptor (Homo sapiens, UniProt P06401).
T2 sequence (P06401 whole entry): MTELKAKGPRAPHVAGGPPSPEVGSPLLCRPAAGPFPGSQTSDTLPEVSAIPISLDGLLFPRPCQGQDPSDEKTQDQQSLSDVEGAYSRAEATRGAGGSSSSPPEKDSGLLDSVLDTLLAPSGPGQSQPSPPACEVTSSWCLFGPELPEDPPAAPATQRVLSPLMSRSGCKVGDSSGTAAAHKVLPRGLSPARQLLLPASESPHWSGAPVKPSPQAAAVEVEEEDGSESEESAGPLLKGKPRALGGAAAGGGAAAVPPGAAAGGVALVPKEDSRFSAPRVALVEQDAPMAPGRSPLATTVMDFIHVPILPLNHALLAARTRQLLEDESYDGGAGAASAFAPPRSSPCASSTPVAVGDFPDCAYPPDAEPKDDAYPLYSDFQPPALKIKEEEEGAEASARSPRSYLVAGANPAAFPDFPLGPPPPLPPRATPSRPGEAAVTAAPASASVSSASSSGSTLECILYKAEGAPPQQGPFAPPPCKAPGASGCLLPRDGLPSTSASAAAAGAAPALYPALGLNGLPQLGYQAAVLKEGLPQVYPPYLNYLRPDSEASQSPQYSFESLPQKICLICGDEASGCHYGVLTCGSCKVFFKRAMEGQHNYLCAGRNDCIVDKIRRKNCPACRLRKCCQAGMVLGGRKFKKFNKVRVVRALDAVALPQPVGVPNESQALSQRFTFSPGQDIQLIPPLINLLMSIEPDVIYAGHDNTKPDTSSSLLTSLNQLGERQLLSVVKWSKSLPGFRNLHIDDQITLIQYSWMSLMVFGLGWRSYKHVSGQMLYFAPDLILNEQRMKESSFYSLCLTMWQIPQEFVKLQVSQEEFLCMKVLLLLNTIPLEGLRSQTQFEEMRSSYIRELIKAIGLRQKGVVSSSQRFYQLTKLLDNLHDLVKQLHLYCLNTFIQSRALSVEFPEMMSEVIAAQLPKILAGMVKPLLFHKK
Description: Agonist activity at progesterone receptor (unknown origin).

The target of the next series is hERG (KCNH2) (Homo sapiens, UniProt Q12809). Put plainly: Inhibition of hERG at 10 uM relative to control. In kind it is toxicity. (In general: hERG is a cardiac potassium channel; its block is linked to QT prolongation.)
Sequence of hERG (KCNH2) (Q12809 whole entry): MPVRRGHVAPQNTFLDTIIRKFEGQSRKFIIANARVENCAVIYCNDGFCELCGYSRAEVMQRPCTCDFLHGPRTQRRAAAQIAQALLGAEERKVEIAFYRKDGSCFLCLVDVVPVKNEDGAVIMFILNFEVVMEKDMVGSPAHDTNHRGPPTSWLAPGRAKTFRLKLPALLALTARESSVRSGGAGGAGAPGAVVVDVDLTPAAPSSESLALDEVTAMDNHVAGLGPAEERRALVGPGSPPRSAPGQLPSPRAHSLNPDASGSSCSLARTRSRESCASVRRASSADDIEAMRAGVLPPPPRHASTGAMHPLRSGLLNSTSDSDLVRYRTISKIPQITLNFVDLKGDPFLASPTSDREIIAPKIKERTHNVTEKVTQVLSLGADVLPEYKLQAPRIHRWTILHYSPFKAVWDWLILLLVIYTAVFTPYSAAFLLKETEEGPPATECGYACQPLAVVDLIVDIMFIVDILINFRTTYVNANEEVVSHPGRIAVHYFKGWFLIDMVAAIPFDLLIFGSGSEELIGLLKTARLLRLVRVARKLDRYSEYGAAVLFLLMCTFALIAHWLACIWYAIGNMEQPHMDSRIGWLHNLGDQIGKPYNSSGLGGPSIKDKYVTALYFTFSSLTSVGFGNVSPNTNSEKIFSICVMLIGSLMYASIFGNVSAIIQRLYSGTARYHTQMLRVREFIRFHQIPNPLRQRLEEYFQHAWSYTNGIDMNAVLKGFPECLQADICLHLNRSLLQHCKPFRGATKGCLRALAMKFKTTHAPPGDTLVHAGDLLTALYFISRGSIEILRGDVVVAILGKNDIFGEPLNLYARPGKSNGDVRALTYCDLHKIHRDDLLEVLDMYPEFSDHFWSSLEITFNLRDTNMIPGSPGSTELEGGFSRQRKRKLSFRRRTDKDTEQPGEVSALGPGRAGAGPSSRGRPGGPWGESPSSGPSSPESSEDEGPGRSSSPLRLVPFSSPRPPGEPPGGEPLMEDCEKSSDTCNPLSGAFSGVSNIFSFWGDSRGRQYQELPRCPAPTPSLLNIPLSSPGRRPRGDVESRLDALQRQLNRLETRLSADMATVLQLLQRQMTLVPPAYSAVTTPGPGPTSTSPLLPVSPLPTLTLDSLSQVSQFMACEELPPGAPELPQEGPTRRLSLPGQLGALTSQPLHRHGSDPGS
Series [8] can be described thus: Microsomal stability in rat liver microsome assessed as parent compound remaining at 60 mins in presence of NADPH and UDPGA by HPLC-MS/MS analysis. To be noted: liver microsomes, read-out: Stability. In kind it is ADME.
Series [9] is described as follows: AUC (0 to infinity) in rat at 20 mg/kg, iv by LC-MS/MS analysis. It counts as ADME, organism-based. Conditions: in vivo.
Series [10] is described as follows: MRTlast in rat at 20 mg/kg, po by LC-MS/MS analysis. It counts as ADME, organism-based. Conditions: in vivo.

Sequence of Androgen receptor (P10275 whole entry F877L): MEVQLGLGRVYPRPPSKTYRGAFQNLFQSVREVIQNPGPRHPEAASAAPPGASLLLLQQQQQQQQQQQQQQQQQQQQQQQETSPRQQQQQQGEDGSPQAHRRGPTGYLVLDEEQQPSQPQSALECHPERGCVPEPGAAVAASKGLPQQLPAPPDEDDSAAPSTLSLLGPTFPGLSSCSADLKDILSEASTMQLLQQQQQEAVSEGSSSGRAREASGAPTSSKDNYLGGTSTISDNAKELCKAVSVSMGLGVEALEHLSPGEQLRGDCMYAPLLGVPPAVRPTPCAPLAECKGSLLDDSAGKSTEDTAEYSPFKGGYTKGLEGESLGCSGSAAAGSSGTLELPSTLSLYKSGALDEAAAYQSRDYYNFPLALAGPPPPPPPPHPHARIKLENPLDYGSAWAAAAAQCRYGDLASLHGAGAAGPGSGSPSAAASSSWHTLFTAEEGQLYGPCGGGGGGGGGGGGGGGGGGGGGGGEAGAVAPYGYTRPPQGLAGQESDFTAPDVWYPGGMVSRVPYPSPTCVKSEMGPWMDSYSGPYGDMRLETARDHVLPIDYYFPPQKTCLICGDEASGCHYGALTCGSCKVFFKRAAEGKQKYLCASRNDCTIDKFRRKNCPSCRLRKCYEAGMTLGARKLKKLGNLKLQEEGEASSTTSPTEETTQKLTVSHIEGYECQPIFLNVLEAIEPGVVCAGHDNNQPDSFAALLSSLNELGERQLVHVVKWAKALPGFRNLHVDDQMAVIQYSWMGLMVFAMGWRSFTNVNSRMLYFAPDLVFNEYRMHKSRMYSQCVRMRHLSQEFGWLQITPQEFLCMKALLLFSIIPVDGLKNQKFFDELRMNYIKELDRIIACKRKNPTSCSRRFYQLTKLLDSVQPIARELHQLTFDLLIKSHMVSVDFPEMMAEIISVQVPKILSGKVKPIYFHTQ

The term pIC50 denotes the IC50 on a negative log10 scale, so that one unit is a factor of ten. Usually Tmax stands for the time at which the peak concentration occurs. For orientation: half-life means how long it takes for the measured level to halve. As usually defined, the bioavailability is dose-corrected exposure relative to a reference, in per cent. One may read the inhibition as the percentage by which the read-out fell short of the control. What is called AUC(0-inf) is total exposure, with the tail of the curve extrapolated. One may read the MRT last as a mean duration of stay, worked out from the concentration-time curve. In the case of `Cc1oc(-c2cccc(C(F)(F)F)c2)cc1C(=O)Nc1nc(CN2CCOCC2)ns1`, the pIC50 in [1] is less than 5.00; on Androgen receptor, 8.00; at Progesterone receptor it was less than 5.00. Besides, the Tmax in series [2] was found to be 3.33 h. Also, the half-life in series [3] came out at 1.58 h; in series [4], 0.367 h; in [5], 0.642 h. Further, the Activity entry in the series with NIH3T3 is “Non-toxic”. For the same compound, the bioavailability in series [6] is 61.5%. Besides, the remaining at 1 h came out at 32.3% in series [7] and 22.5% in [8]. Further, testing at 10 µM against hERG (KCNH2) gave an inhibition of 20.7%. In addition, the area under the curve AUC(0-inf) in series [9] turned out to be 35800 ng·h/mL. Moreover, the MRT last in [10] was 6.65 h.
